Read-outs that look alike come from different tables or passages of the source.
Assays:
[1] = biological target: T1, GST-tagged PTPN2 protein (Homo sapiens, UniProt P17706); experiment: Primary assay of PTPN2 enzymatic activity inhibition (DiFMUP fluorescence); format: biochemical; conditions: DiFMUP substrate 2 μM, 60 min at RT
T1 construct: purchased ActiveMotif 31592
Description: Compound activity was determined using GST-tagged PTPN2 protein (Cat #31592, ActiveMotif) (SEQ ID NO: 1) in an in vitro enzymatic reaction. The enzymatic reaction was carried out in assay buffer (50 mM HEPES Na salt pH 7.2-7.4, 2 mM EDTA, 100 mM NaCl, 52 ng/μL BSA, and 6 mM DTT). The compounds were dispensed on a 384 well Diamond Well Plate (Axigen, Cat #P-384-120SQ-C-S) using the Biomek FX liquid handling system at 100× solutions of compounds in DMSO. 2× PTPN2 (final concentration 0.004 ng/μL) was prepared in 1× Assay buffer and 25 μL of mixture per well was added into Reaction plate (Optiplate, black, Perkin Elmer, Cat #6007270). Add 25 μL of 1× buffer to Ctrl- (Substrate w/o PTPN2) wells followed by centrifugation at 100 g for 1 min. Next step the Compounds were added to Reaction plate using Biomek station via following steps: 3 ul of 100× compounds (in DMSO) were mixed with 27 μL of Assay Buffer, then 5 μL of this mixture was added to Reaction plate with 25 μL of PTPN2 Mix. Plates were centrifuged for 1 min at 100 g and incubated for another 10 minutes at room temperature. Finally, 20 μL of 2.5× Substrate (DiFUMP, Invitrogen™ Cat #D6567) mix was added into appropriate wells of Reaction plate to the final concentration of 2 μM, plate was centrifuged at 100 g for 1 min followed by incubation at RT for 60 min, and the Fluorescence Intensity was measured using a Microplate Reader (ClarioStar Plus, excitation 360 nm, emission 450 nm). The % inhibition was then used to calculate the IC50 values. The IC50 values are shown in Table A1, wherein “A” corresponds to IC50<5.0 nm, “B” corresponds to 5.0 nm≤IC50<10.0 nm, “C” corresponds to 10.0 nm≤IC50<50.0 nm, “D” corresponds to 50.0 nm≤IC50<100.0 nm, and “E” corresponds to 100.0 nm≤IC50<500.0 nm, and “F” corresponds to 500.0 nm≤IC50.

[2] = tested on: B16F10 mouse melanoma cells; experiment: Tumor cells B16F10 cellular growth IFNγ-induced inhibition assay (CellTiter-Glo); format: cell-based; conditions: for IC50: B16-F10, 72 h, 3 days incubation; for inhibition at 100 µM: B16-F10, B16F10, 100 μM compound; for inhibition at 40 µM: B16-F10, B16F10, 40 μM compound
Description: B16F10 mouse melanoma cells (ATCC Cat #CRL-6475) were seeded at a density of 500 cells per well in a 384-well clear bottom plate (Corning Cat #3712, Corning, N.Y.) in 40 μL total volume of DMEM+10% FBS (PanEco Cat #C420, Russia and Sigma Cat #F4135, St. Louis, Mo.). Cells were allowed to adhere overnight at 37° C., 5% CO2. On the following day, 250× solutions of compounds in DMSO (Sigma Cat #D2650) were prepared into […] plate (Diamond Well Plate, Axigen, Cat #P-384-120SQ-C-S) (final concentration of 1×) and DMSO only controls were included. Dilution Plate (Diamond Well Plate (Axigen, Cat #P-384-120SQ-C-S) was prepared by adding 49 μL of culture medium per well: half of the plate with culture medium only, half with culture medium+IFNγ (5 ng/ml). A 1 μL aliquot of 250× compounds ([…] plate) was added to 49 μL of culture medium (Dilution plate), then a 10 μL aliqut of the mixture was transferred to Reaction plate with 40 μL of cells followed by centrifugation at 240 g for 1 min. After 3 days of incubation, 10 μL of CellTiter-Glo (Promega) was added to the cells, plates were centrifuged at 240 g for 1 min, and luminescence signal was measured. For each compound, the percent growth inhibition at every compound dose level was calculated relative to the “DMSO/with IFNγ” control and used to determine the IC50.

[3] = B16F10, + IFNγ, read-out: IC50 + IFNγ
[4] = B16F10, no IFNγ, read-out: IC50 no IFNγ
[5] = + IFNγ, read-out: % Growth Inhibition at 100 μM + IFNγ
[6] = no IFNγ, read-out: % Growth Inhibition at 100 μM no IFNγ
[7] = no IFNγ, read-out: % Growth Inhibition no IFNγ @ 40 μM

T1 sequence (P17706 with tags, fused parts or gaps): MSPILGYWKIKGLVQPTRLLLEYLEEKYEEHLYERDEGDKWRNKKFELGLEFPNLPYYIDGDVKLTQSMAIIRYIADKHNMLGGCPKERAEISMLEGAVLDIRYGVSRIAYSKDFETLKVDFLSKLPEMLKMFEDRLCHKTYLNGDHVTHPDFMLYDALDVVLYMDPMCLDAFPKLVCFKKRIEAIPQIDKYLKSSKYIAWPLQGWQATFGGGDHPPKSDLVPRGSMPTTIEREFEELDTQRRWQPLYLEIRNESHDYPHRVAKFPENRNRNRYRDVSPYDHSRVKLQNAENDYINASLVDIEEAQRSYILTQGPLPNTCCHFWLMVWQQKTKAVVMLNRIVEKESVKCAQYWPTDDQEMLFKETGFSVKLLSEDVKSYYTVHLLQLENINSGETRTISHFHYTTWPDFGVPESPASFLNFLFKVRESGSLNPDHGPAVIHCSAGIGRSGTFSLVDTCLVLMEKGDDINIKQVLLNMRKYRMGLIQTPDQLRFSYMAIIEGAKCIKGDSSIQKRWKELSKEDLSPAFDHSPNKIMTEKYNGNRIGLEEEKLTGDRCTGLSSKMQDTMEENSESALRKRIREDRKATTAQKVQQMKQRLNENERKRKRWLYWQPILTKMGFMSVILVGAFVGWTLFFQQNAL

Row | Compound | IC50 [1] [nM] | IC50 [2, 3] [µM] | IC50 [2, 4] [µM] | inhibition at 100 µM [2, 5] [%] | inhibition at 100 µM [2, 6] [%] | inhibition at 40 µM ([2]; + IFNγ, read-out: % Growth Inhibition + IFNγ @ 40 μM) [%] | inhibition at 40 µM [2, 7] [%]
1 | O=C1CN(c2c(O)cc(NC(=O)c3ccccc3)cc2F)S(=O)(=O)N1 [Example 13, N-[4-(1,1-dioxido-4-oxo-1,2,5-thiadiazolidin-2-yl)-3-fluoro-5-hydroxyphenyl]benzamide] | 100 to 500 | ≥ 100 | ≥ 100 | 10 to 50 | 10 to 50 |  | 
2 | COc1ccc(C(=O)Nc2cc(O)c(N3CC(=O)NS3(=O)=O)c(F)c2)cc1OC [Example 14, N-[4-(1,1-dioxido-4-oxo-1,2,5-thiadiazolidin-2-yl)-3-fluoro-5-hydroxyphenyl]-3,4-dimethoxybenzamide] | 100 to 500 | 10 to 50 | ≥ 100 | 50 to 75 | 10 to 50 |  | 
3 | COc1ccc(C(=O)Nc2cc(O)c(N3CC(=O)NS3(=O)=O)c(F)c2)cc1 [Example 15, N-[4-(1,1-dioxido-4-oxo-1,2,5-thiadiazolidin-2-yl)-3-fluoro-5-hydroxyphenyl]-4-methoxybenzamide] | 100 to 500 | 10 to 50 | 10 to 50 |  |  | 10 to 50 | 10 to 50
4 | CC(C)(C)c1ccc(C(=O)Nc2cc(O)c(N3CC(=O)NS3(=O)=O)c(F)c2)cc1 [Example 16, 4-tert-butyl-N-[4-(1,1-dioxido-4-oxo-1,2,5-thiadiazolidin-2-yl)-3-fluoro-5-hydroxyphenyl]benzamide] | 100 to 500 | ≥ 100 | ≥ 100 | 10 to 50 | 10 to 50 |  | 
5 | O=C1CN(c2c(O)cc(NS(=O)(=O)c3ccccc3)cc2F)S(=O)(=O)N1 [Example 17, N-[4-(1,1-dioxido-4-oxo-1,2,5-thiadiazolidin-2-yl)-3-fluoro-5-hydroxyphenyl]benzenesulfonamide] | 10 to 50 | 10 to 50 | 10 to 50 |  |  |  | 10 to 50
6 | Cc1ccc(S(=O)(=O)Nc2cc(O)c(N3CC(=O)NS3(=O)=O)c(F)c2)cc1 [Example 18, N-[4-(1,1-dioxido-4-oxo-1,2,5-thiadiazolidin-2-yl)-3-fluoro-5-hydroxyphenyl]-4-methylbenzenesulfonamide] | 10 to 50 | 50 to 100 | ≥ 100 | 50 to 75 | 10 to 50 |  | 
7 | Cc1ccc(-c2cc(C(F)(F)F)nn2-c2ccc(S(=O)(=O)Nc3cc(O)c(N4CC(=O)NS4(=O)=O)c(F)c3)cc2)cc1 [Example 19, N-[4-(1,1-dioxido-4-oxo-1,2,5-thiadiazolidin-2-yl)-3-fluoro-5-hydroxyphenyl]-4-[5-(4-methylphenyl)-3-(trifluoromethyl)-1H-pyrazol-1-yl]benzenesulfonamide] | 100 to 500 | ≥ 100 | ≥ 100 | 10 to 50 | 10 to 50 |  | 
8 | O=C1CN(c2c(O)cc(NS(=O)(=O)c3ccc(F)cc3)cc2F)S(=O)(=O)N1 [Example 20, N-[4-(1,1-dioxido-4-oxo-1,2,5-thiadiazolidin-2-yl)-3-fluoro-5-hydroxyphenyl]-4-fluorobenzenesulfonamide] | 50 to 100 | 10 to 50 | ≥ 100 | 50 to 75 | 10 to 50 |  | 
9 | O=C1CN(c2c(O)cc(NS(=O)(=O)c3ccccc3F)cc2F)S(=O)(=O)N1 [Example 21, N-[4-(1,1-dioxido-4-oxo-1,2,5-thiadiazolidin-2-yl)-3-fluoro-5-hydroxyphenyl]-2-fluorobenzenesulfonamide] | 100 to 500 | 10 to 50 | ≥ 100 | 50 to 75 | 10 to 50 |  | 
10 | Cc1cccc(S(=O)(=O)Nc2cc(O)c(N3CC(=O)NS3(=O)=O)c(F)c2)c1 [Example 22, N-[4-(1,1-dioxido-4-oxo-1,2,5-thiadiazolidin-2-yl)-3-fluoro-5-hydroxyphenyl]-3-methylbenzenesulfonamide] | 10 to 50 | 10 to 50 | ≥ 100 | 50 to 75 | 10 to 50 |  | 
11 | Cc1ccccc1S(=O)(=O)Nc1cc(O)c(N2CC(=O)NS2(=O)=O)c(F)c1 [Example 23, N-[4-(1,1-dioxido-4-oxo-1,2,5-thiadiazolidin-2-yl)-3-fluoro-5-hydroxyphenyl]-2-methylbenzenesulfonamide] | 50 to 100 | 50 to 100 | ≥ 100 | 50 to 75 | 10 to 50 |  | 
12 | CC(C)(C)c1ccc(S(=O)(=O)Nc2cc(O)c(N3CC(=O)NS3(=O)=O)c(F)c2)cc1 [Example 24, 4-tert-butyl-N-[4-(1,1-dioxido-4-oxo-1,2,5-thiadiazolidin-2-yl)-3-fluoro-5-hydroxyphenyl]benzenesulfonamide] | 10 to 50 | ≥ 100 | ≥ 100 | 50 to 75 | 10 to 50 |  | 
13 | COc1ccc(S(=O)(=O)Nc2cc(O)c(N3CC(=O)NS3(=O)=O)c(F)c2)cc1 [Example 25, N-[4-(1,1-dioxido-4-oxo-1,2,5-thiadiazolidin-2-yl)-3-fluoro-5-hydroxyphenyl]-4-methoxybenzenesulfonamide] | 10 to 50 | 10 to 50 | ≥ 100 | 50 to 75 | 10 to 50 |  | 
14 | COc1ccc(S(=O)(=O)Nc2cc(O)c(N3CC(=O)NS3(=O)=O)c(F)c2)cc1OC [Example 26, N-[4-(1,1-dioxido-4-oxo-1,2,5-thiadiazolidin-2-yl)-3-fluoro-5-hydroxyphenyl]-3,4-dimethoxybenzenesulfonamide] | 10 to 50 | 10 to 50 | ≥ 100 | 50 to 75 | 10 to 50 |  | 
15 | Cc1c(S(=O)(=O)Nc2cc(O)c(N3CC(=O)NS3(=O)=O)c(F)c2)cnn1C(F)F [Example 27, 1-(difluoromethyl)-N-[4-(1,1-dioxido-4-oxo-1,2,5-thiadiazolidin-2-yl)-3-fluoro-5-hydroxyphenyl]-5-methyl-1H-pyrazole-4-sulfonamide] | 50 to 100 | ≥ 100 | ≥ 100 | 10 to 50 | 10 to 50 |  | 
16 | CCCCS(=O)(=O)Nc1cc(O)c(N2CC(=O)NS2(=O)=O)c(F)c1 [Example 28, N-[4-(1,1-dioxido-4-oxo-1,2,5-thiadiazolidin-2-yl)-3-fluoro-5-hydroxyphenyl]butane-1-sulfonamide] | 100 to 500 | 50 to 100 | ≥ 100 | 50 to 75 | 10 to 50 |  | 
17 | O=C1CN(c2c(O)cc(NC(=O)Nc3ccccc3)cc2F)S(=O)(=O)N1 [Example 35, 1-[4-(1,1-dioxido-4-oxo-1,2,5-thiadiazolidin-2-yl)-3-fluoro-5-hydroxyphenyl]-3-phenylurea] | 5 to 10 | 10 to 50 | ≥ 100 | 75 to 100 | 10 to 50 |  | 
18 | Cc1ccc(NC(=O)Nc2cc(O)c(N3CC(=O)NS3(=O)=O)c(F)c2)cc1 [Example 36, 1-[4-(1,1-dioxido-4-oxo-1,2,5-thiadiazolidin-2-yl)-3-fluoro-5-hydroxyphenyl]-3-(4-methylphenyl)urea] | < 5 | 50 to 100 | ≥ 100 | 50 to 75 | 10 to 50 |  | 
